From patent publication US9562035B2, “Benzamide derivative useful as FASN inhibitors for the treatment of cancer” (Janssen Pharmaceutica NV, priority 2013, dated 2017) come the findings set out here.

The target in experiment [1] is T1, hFASN enzyme (full length) (Homo sapiens, UniProt P49327).
T1 construct: 10 μL hFASN enzyme (full length, 300 ng, purified in house); made in house
The experiment is described as follows: Fatty Acid Synthase (FASN) Inhibition Scintillation Proximity Assay. Particulars: for IC50: mean where tested more than once, ~ = standard error of pIC50 larger than 0.5; for inhibition at 10 µM: read-out: FASN % Effect @1E−05M. The class given is biochemical. In outline:
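Eight compound concentrations (0.01–30 μM) tested in pH 7.5 phosphate buffer with DTT; human full-length enzyme converted [3H]-acetyl-CoA plus malonyl-CoA, with NADPH, over 60 min at room temperature. Hydrophobic [3H]-palmitate detected by bead proximity scintillation imaging; control-normalised data fitted for IC50/pIC50.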

In experiment [2] the test system is A2780 ovarian cells. Description: A2780 Ovarian Cell Proliferation Assay in Lipid Reduced Medium, without Palmitate. In kind it is cell-based. The settings on record: Homo sapiens, A2780; lipid reduced medium, without palmitate, 96 h, MTT; read-out: Proliferation A2780 w/o Palmitate pIC50 (converted). The essentials: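 A2780 cells were seeded in 10% FCS medium and switched next day to 10% lipid-reduced serum without palmitate. Compounds at 0.01–30 μM were added with 0.2% DMSO, 0.2% fatty-acid-free BSA and 0.25% ethanol final. After 96 h, MTT absorbance at 544 nm was normalized to plate controls, and IC50/pIC50 came from a 4-parameter logistic fit.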

For experiment [3], the target named is T2, FASN Keto-reductase Domain (Homo sapiens, UniProt P49327).
T2 construct: 10 μL hFASN enzyme (full length, 300 ng, purified in house) and 360 μM NADPH; made in house
Description: Fatty Acid Synthase Keto-Reductase Domain (FASN KR) Inhibition. In kind it is biochemical. The settings on record: mean where tested more than once; read-out: FASN K-R Domain pIC50 (converted). In outline: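 Keto-reductase activity followed as NADPH consumption (A340 drop between 0 and 20 min, room temperature) using in-house full-length hFASN, 360 μM NADPH and ethyl acetoacetate substrate (180 mM stock), pH 7.5 phosphate buffer.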

Experiment [4] has as its system A2780 ovarian cells. The experiment is described as follows: A2780 Ovarian Cell Proliferation Assay in Lipid Reduced Medium, with Palmitate (control). In kind it is cell-based. Particulars: Homo sapiens, A2780; lipid reduced medium, 25 μM palmitate, 96 h, MTT; read-out: Proliferation A2780 with Palmitate pIC50 (converted). The essentials: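 Read-out was MTT absorbance at 544 nm after 96 h at 37 °C. Cells grown overnight in RPMI1640/10% FCS were moved to 10% lipid-reduced serum with compound plus palmitate (final 25 μM, 0.2% fatty-acid-free BSA, 0.2% DMSO). IC50 came from least-squares curve fitting, expressed as −log(IC50).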

T2 sequence (P49327 whole entry, the tested form may be a part): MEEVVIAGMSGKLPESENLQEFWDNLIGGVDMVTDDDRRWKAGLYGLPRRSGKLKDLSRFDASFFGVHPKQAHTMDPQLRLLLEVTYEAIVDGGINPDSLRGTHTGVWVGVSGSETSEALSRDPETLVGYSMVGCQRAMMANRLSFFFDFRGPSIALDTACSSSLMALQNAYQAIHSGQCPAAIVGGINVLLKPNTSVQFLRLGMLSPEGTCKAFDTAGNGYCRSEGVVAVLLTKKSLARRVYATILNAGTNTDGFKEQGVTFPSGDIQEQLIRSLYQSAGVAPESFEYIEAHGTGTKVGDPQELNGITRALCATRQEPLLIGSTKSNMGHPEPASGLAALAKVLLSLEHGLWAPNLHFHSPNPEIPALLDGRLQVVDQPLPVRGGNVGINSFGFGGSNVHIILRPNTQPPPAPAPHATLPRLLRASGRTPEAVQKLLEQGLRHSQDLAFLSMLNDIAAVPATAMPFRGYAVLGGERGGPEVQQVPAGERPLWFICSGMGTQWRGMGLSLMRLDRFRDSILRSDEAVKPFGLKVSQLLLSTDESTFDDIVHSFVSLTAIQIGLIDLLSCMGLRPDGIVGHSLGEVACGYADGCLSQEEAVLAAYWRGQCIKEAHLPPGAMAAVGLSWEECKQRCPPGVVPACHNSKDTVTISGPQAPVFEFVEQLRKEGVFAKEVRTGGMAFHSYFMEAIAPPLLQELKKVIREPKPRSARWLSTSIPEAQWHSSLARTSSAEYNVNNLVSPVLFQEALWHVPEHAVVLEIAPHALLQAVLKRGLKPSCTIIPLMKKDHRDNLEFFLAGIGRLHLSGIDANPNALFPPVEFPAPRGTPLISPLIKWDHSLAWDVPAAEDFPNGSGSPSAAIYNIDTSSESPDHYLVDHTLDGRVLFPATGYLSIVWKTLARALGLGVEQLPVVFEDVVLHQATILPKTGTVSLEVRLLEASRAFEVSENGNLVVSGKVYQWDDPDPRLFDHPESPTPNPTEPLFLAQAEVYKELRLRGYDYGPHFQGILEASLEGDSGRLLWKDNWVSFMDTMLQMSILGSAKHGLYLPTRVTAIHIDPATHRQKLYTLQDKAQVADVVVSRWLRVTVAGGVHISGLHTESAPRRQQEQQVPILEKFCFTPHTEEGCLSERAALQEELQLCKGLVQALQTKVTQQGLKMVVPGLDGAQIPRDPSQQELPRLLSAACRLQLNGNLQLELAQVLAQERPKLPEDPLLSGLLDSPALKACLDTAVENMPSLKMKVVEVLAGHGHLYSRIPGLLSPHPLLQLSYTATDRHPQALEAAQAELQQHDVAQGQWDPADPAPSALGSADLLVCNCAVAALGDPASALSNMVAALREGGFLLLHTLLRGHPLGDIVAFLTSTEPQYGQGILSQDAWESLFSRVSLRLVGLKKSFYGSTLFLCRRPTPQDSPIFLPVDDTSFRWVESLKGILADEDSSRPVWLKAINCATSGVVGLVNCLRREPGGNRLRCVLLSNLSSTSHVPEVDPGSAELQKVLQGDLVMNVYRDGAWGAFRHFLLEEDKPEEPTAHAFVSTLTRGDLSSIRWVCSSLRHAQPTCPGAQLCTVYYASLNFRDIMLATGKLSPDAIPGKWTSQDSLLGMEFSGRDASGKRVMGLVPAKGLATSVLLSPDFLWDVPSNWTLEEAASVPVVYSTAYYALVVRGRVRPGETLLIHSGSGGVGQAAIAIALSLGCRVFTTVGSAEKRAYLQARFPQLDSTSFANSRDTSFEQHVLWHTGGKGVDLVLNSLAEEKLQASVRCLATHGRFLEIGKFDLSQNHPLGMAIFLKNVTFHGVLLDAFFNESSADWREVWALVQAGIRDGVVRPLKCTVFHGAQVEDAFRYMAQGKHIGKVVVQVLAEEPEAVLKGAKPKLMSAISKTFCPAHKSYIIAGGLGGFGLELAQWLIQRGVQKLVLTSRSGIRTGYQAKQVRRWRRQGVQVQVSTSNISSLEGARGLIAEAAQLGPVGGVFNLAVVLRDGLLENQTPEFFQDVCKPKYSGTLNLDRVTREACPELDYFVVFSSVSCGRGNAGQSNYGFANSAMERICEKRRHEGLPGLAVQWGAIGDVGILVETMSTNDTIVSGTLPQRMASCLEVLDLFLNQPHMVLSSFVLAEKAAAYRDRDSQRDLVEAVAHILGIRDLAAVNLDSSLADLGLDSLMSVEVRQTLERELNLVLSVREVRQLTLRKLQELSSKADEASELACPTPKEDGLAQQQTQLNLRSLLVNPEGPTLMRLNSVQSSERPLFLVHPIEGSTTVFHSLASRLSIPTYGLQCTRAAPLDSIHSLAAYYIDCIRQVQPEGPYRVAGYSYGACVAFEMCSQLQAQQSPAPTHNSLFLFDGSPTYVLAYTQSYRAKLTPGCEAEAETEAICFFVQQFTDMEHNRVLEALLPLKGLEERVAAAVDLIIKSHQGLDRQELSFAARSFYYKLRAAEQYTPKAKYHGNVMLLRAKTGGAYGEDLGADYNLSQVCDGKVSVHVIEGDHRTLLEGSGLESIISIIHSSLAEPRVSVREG
T1 sequence (P49327 whole entry): as the sequence (P49327 whole entry, the tested form may be a part) above

For `COc1ccc(C(=O)Nc2cc(C(=O)N3CCC(c4ccc(-c5cnn(C)c5)cc4)CC3)ccc2C)cc1O` [Compound 135, 3-hydroxy-4-methoxy-N-(2-methyl-5-(4-(4-(1-methyl-1H-pyrazol-4-yl)phenyl)piperidine-1-carbonyl)phenyl)benzamide], the IC50 is 16.2 nM in experiment [1], 87.1 nM in experiment [2], 55 nM in experiment [3] and more than 10000 nM in experiment [4]. Further, in experiment [1], the inhibition at 10 µM is 107%.

As to `Cc1ccc(C(=O)N2CCC(c3ccc(-c4cnn(C)c4)cn3)CC2)cc1NC(=O)c1ccc(Cl)nc1` [Compound 263, 6-chloro-N-(2-methyl-5-(4-(5-(1-methyl-1H-pyrazol-4-yl)pyridin-2-yl)piperidine-1-carbonyl)phenyl)nicotinamide], the IC50 is 91.2 nM in experiment [1], 170 nM in experiment [2], 479 nM in experiment [3] and more than 10000 nM in experiment [4]. The inhibition at 10 µM in experiment [1] was found to be 111%.

For the compound `CC(C)Nc1ccc(C(=O)Nc2cc(C(=O)N3CCC(c4ccc(-c5cnn(C)c5)cc4)CC3)ccc2O)cn1` [Compound 269, N-(2-hydroxy-5-(4-(4-(1-methyl-1H-pyrazol-4-yl)phenyl)piperidine-1-carbonyl)phenyl)-6-(isopropylamino)nicotinamide], the IC50 in experiment [1] is 69.2 nM; in experiment [2], 316 nM; in experiment [3] it was 257 nM; in experiment [4], 7240 nM. Besides, the inhibition at 10 µM in experiment [1] was 107%.

Take `Cc1ccc(C(=O)N2CCC(c3ccc(-c4cnn(C)c4)cc3)CC2)cc1NC(=O)C1CCN(CC(C)C)CC1` [Compound 179, 1-isobutyl-N-(2-methyl-5-(4-(4-(1-methyl-1H-pyrazol-4-yl)phenyl)piperidine-1-carbonyl)phenyl)piperidine-4-carboxamide]: the IC50 in experiment [1] is 26.3 nM; in experiment [2] it was 57.5 nM; in experiment [3], 37.2 nM; in experiment [4] it was more than 6170 nM. Moreover, in experiment [1], the inhibition at 10 µM was 108%.

For the compound `CC(C)Nc1ccc(C(=O)Nc2cc(C(=O)N3CC[C@H](c4ccc(-c5ccnn5C)cc4)[C@@H](O)C3)ccc2Cl)cn1` (racemic) [Compound #77, (±)-N-(2-chloro-5-((3R,4R)-3-hydroxy-4-(4-(1-methyl-1H-pyrazol-5-yl)phenyl)piperidine-1-carbonyl)phenyl)-6-(isopropylamino)nicotinamide], the IC50 in experiment [1] is 178 nM; in experiment [2], 851 nM; in experiment [3], 1070 nM; in experiment [4] it was 15100 nM. For the same compound, the inhibition at 10 µM in experiment [1] came out at 105%.

Take `Cc1ccc(C(=O)N2CCC(c3ccc(-c4cnn(CC5CC5)c4)cc3)CC2)cc1NC(=O)c1ccc(NC(C)C)nc1` [Compound 249, N-(5-(4-(4-(1-(cyclopropylmethyl)-1H-pyrazol-4-yl)phenyl)piperidine-1-carbonyl)-2-methylphenyl)-6-(isopropylamino)nicotinamide]: the IC50 in experiment [1] was 53.7 nM; in experiment [2], 72.4 nM; in experiment [3] it was 100 nM; in experiment [4] it was 5250 nM. The inhibition at 10 µM in experiment [1] turned out to be 109%.

Consider `Cc1ccc(C(=O)N2CCC(c3ccc(-c4cnn(C)c4)nc3)CC2)cc1NC(=O)c1ccc(NC(C)C)nc1` [Compound 268, 6-(isopropylamino)-N-(2-methyl-5-(4-(6-(1-methyl-1H-pyrazol-4-yl)pyridin-3-yl)piperidine-1-carbonyl)phenyl)nicotinamide], for which the IC50 was 166 nM in experiment [1], 537 nM in experiment [2], 1350 nM in experiment [3] and more than 10000 nM in experiment [4]. Further, the inhibition at 10 µM in experiment [1] was found to be 104%.

Consider `Cc1ccc(C(=O)N2CCC(c3ccc(-n4ccnc4)cc3)CC2)cc1NC(=O)c1ccc(Cl)nc1` [Compound #11, N-(5-(4-(4-(1H-imidazol-1-yl)phenyl)piperidine-1-carbonyl)-2-methylphenyl)-6-chloronicotinamide], for which the IC50 in experiment [1] is 27.5 nM; in experiment [2], 56.2 nM; in experiment [3] it was 49 nM; in experiment [4], more than 10000 nM. Also, the inhibition at 10 µM in experiment [1] was 106%.
